US20100204203A1, “Chemical Compounds 637: Pyridopyrimidinediones as PDE4 Inhibitors” (priority 2007, published 2010)
Counter-ions that a name gives are not always drawn.

The compounds below were run against recombinant Human Phosphodiesterase B2 (PDE4B2) (Homo sapiens, UniProt Q07343) (assay: Human Phosphodiesterase B2 Radiometric Assay (yttrium silicate SPA beads, [3H]cyclic AMP)). Conditions: recombinant human PDE4B2, radiometric SPA assay, 8 nM [3H]cyclic AMP; read-out: PDE4B2 pIC50 (converted).
Sequence of recombinant Human Phosphodiesterase B2 (PDE4B2) (Q07343 1-564 isoform Q07343-2): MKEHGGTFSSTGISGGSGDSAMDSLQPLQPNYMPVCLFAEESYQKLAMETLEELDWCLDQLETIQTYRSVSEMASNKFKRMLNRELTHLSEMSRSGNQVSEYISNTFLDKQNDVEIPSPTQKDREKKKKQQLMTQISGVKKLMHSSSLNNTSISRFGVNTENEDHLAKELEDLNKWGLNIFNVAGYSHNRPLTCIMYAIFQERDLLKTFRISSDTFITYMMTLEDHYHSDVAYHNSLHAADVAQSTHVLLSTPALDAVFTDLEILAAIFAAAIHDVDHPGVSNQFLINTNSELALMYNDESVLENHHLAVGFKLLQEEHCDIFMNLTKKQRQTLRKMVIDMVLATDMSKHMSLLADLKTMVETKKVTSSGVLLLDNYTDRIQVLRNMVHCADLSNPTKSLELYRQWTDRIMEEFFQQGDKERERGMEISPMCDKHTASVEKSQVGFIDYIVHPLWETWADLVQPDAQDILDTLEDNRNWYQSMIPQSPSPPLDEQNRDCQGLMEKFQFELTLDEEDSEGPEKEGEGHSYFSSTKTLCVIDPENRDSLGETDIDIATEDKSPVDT
Format: biochemical
Procedure: Human Phosphodiesterase B2 Radiometric Assay
The assay uses recombinant Human Phosphodiesterase B2 (PDE4B2) produced in house (PrAZL0163), stored at −20° C. This assay is based on the observation that 5′AMP, the product of the reaction catalysed by PDE4, binds preferentially to yttrium silicate SPA beads (Amersham Biosciences, UK) compared to the substrate, cAMP. Compounds at the appropriate concentration were preincubated at 30 C for 30 min with an assay buffer containing 50 mM HEPES (pH 7.5), 8.3 mM MgCl2, 1.7 mM EGTA, 0.01% (w/v) Brij° 35 and 0.1 mg/mL recombinant PDE4B2. The reaction was started by the addition of [3H]cyclic AMP to give a final concentration of 8 nM, and was stopped 20 minutes after the addition of the substrate by the addition of yttrium silicate SPA beads containing 18 mM Zn SO4. Bound [3H]cyclic AMP was measured using a Topcount NXT (Packard Bioscience, UK). pIC50 values (presented in Table 15) were determined using Xlfit3 curve fitting, using model 205.

Structure (SMILES) | IC50 [nM]
CN(C)Cc1ccccc1-c1cccc(-n2c(=O)n([C@H]3CC[C@@H](NC(=O)c4cn5cc(F)ccc5n4)CC3)c(=O)c3cc(F)cnc32)c1 [Example 33, N-{cis-4-[1-{2′-[(dimethylamino)methyl]biphenyl-3-yl}-6-fluoro-2,4-dioxo-1,4-dihydropyrido[2,3-d]pyrimidin-3(2H)-yl]cyclohexyl}-6-fluoroimidazo[1,2-c]pyridine-2-carboxamide.] | 0.01
CN(C)C1(C(=O)N[C@H]2CC[C@@H](n3c(=O)c4cc(F)cnc4n(-c4cccc(-c5ccccc5)c4)c3=O)CC2)CC1 [Example 53, N-[cis-4-(1-biphenyl-3-yl-6-fluoro-2,4-dioxo-1,4-dihydropyrido[2,3-d]pyrimidin-3(2H)-yl)cyclohexyl]-1-(dimethylamino)cyclopropanecarboxamide] | 0.0158
CN(C)C1(C(=O)N[C@H]2CC[C@@H](n3c(=O)c4cc(F)cnc4n(-c4cccc(-c5ccc(CN6CCN(CC(=O)N7CCOCC7)CC6)cc5)c4)c3=O)CC2)CC1 [Example 212, 1-(dimethylamino)-N-{cis-4-[6-fluoro-1-(4′-{[4-(2-morpholin-4-yl-2-oxoethyl)piperazin-1-yl]methyl}biphenyl-3-yl)-2,4-dioxo-1,4-dihydropyrido[2,3-d]pyrimidin-3(2H)-yl]cyclohexyl} cyclopropanecarboxamide] | 0.0126
CC(C)N1CCN(Cc2ccc(-c3cccc(-n4c(=O)n([C@H]5CC[C@@H](NC(=O)C6CCCC6)CC5)c(=O)c5cc(F)cnc54)c3)cc2)CC1 [Example 236, N-{cis-4-[6-fluoro-1-{4′-[(4-isopropylpiperazin-1-yl)methyl]biphenyl-3-yl}-2,4-dioxo-1,4-di-hydropyrido[2,3-d]pyrimidin-3(2H)-yl]cyclohexyl}cyclo-pentanecarboxamide] | 0.126
CNC1CCN(Cc2cc(O)ccc2-c2cccc(-n3c(=O)n([C@H]4CC[C@@H](NC(=O)c5cn6cc(F)ccc6n5)CC4)c(=O)c4cc(F)cnc43)c2)CC1 [Example 73, 6-fluoro-N-{cis-4-[6-fluoro-1-(4′-hydroxy-2′-{[4-(methylamino)piperidin-1-yl]methyl}biphenyl-3-yl)-2,4-dioxo-1,4-dihydropyrido[2,3-d]pyrimidin-3(2H)-yl]cyclohexyl}imidazo[1,2-a]pyridine-2-carboxamide trifluoroacetate salt] | 0.0251
CN1CCCC1c1ccc2nc(C(=O)N[C@H]3CC[C@@H](n4c(=O)c5cc(F)cnc5n(-c5cccc(-c6ccccc6)c5)c4=O)CC3)cn2c1 (stereo partly drawn) [Example 2, N-[cis-4-(1-biphenyl-3-yl-6-fluoro-2,4-dioxo-1,4-dihydropyrido[2,3-d]pyrimidin-3(2H)-yl)cyclohexyl]-6-(1-methylpyrrolidin-2-yl)imidazo[1,2-a]pyridine-2-carboxamide] | 0.158
CC(C)N1CCN(Cc2ccc(-c3cccc(-n4c(=O)n([C@H]5CC[C@@H](NC(=O)C6(N(C)C)CC6)CC5)c(=O)c5cc(F)cnc54)c3)cc2)CC1 [Example 129, 1-(dimethylamino)-N-{cis-4-[6-fluoro-1-{4′-[(4-isopropylpiperazin-1-yl)methyl]biphenyl-3-yl}-2,4-dioxo-1,4-dihydropyrido[2,3-d]pyrimidin-3(2H)-yl]cyclohexyl}cyclopropanecarboxamide] | 0.0398
CC(C)NCCc1ccc(-c2cccc(-n3c(=O)n([C@H]4CC[C@@H](NC(=O)c5cn6cc(F)ccc6n5)CC4)c(=O)c4cc(F)cnc43)c2)cc1 [Example 98, 6-fluoro-N-{cis-4-[6-fluoro-1-{4′-[2-(isopropylamino)ethyl]biphenyl-3-yl}-2,4-dioxo-1,4-dihydropyrido[2,3-d]pyrimidin-3(2H)-yl]cyclohexyl}imidazo[1,2-a]pyridine-2-carboxamide] | 0.126
CC(=O)N[C@H]1CC[C@@H](n2c(=O)c3cc(F)cnc3n(-c3cccc(-c4ccccc4CN4CCOCC4)c3)c2=O)CC1 [Example 62, N-{cis-4-[6-fluoro-1-[2′-(morpholin-4-ylmethyl)biphenyl-3-yl]-2,4-dioxo-1,4-dihydropyrido[2,3-d]pyrimidin-3(2H)-yl]cyclohexyl}acetamide] | 0.316
Cc1cc(C(=O)N[C@H]2CC[C@@H](n3c(=O)c4cc(F)cnc4n(-c4cccc(-c5ccc(CN6CCCCC6)cc5)c4)c3=O)CC2)nn1C [Example 112, N-{cis-4-[6-fluoro-2,4-dioxo-1-[4′-(piperidin-1-ylmethyl)biphenyl-3-yl]-1,4-dihydropyrido[2,3-d]pyrimidin-3(2H)-yl]cyclohexyl}-1,5-dimethyl-1H-pyrazole-3-carboxamide] | 0.0501
CCN1CCN(Cc2ccc(-c3cccc(-n4c(=O)n([C@H]5CC[C@@H](NC(=O)C6(N(C)C)CC6)CC5)c(=O)c5cc(F)cnc54)c3)cc2)CC1 [Example 130, 1-(dimethylamino)-N-{cis-4-[1-{4′-[(4-ethylpiperazin-1-yl)methyl]biphenyl-3-yl}-6-fluoro-2,4-dioxo-1,4-dihydropyrido[2,3-d]pyrimidin-3(2H)-yl]cyclohexyl}cyclopropane carboxamide] | 0.0251
O=c1c2cc(F)cnc2n(-c2cccc(-c3ccc(O)cc3CN3CCCOCC3)c2)c(=O)n1[C@H]1CC[C@@H](NCc2cn3cc(F)ccc3n2)CC1 [Example 254, 6-Fluoro-3-(cis-4-{[(6-fluoroimidazo[1,2-a]pyridin-2-yl)methyl]amino}cyclohexyl)-1-[4′-hydroxy-2′-(1,4-oxazepan-4-ylmethyl)biphenyl-3-yl]pyrido[2,3-d]pyrimidine-2,4(1H,3H)-dione] | 0.0316
Cn1cc(CN[C@H]2CC[C@@H](n3c(=O)c4cc(F)cnc4n(-c4cccc(-c5ccc(O)cc5CN5CCOCC5)c4)c3=O)CC2)c(-c2ccccc2)n1 [Example 247, 6-Fluoro-1-[4′-hydroxy-2′-(morpholin-4-ylmethyl)biphenyl-3-yl]-3-(cis-4-{[(1-methyl-3-phenyl-1H-pyrazol-4-yl)methyl]amino}cyclohexyl)pyrido[2,3-d]pyrimidine-2,4(1H,3H)-dione] | 0.2
O=C(N[C@H]1CC[C@@H](n2c(=O)c3cc(F)cnc3n(-c3cccc(-c4cccc(CN5CCOCC5)c4)c3)c2=O)CC1)c1cn2cc(F)ccc2n1 [Example 13, 6-fluoro-N-{cis-4-[6-fluoro-1-[3′-(morpholin-4-ylmethyl)biphenyl-3-yl]-2,4-dioxo-1,4-dihydropyrido[2,3-d]pyrimidin-3(2H)-yl]cyclohexyl}imidazo[1,2-a]pyridine-2-carboxamide.] | 0.0631

Continued, values first:

IC50 [nM] | Structure (SMILES)
1.58 | CCN(CC)CCOc1ccc(CN(C(C)=O)[C@H]2CC[C@@H](n3c(=O)c4cc(F)cnc4n(-c4cccc(-c5ccc(CN6CCN(C(C)C)CC6)cc5)c4)c3=O)CC2)cc1 [Example 340, N-{4-[2-(diethylamino)ethoxy]benzyl}-N-{cis-4-[6-fluoro-1-{4′-[(4-isopropylpiperazin-1-yl)methyl]biphenyl-3-yl}-2,4-dioxo-1,4-dihydropyrido[2,3-d]pyrimidin-3 (2H)-yl]cyclohexyl}acetamide]
0.501 | Cc1nc2ccccn2c1CN[C@H]1CC[C@@H](n2c(=O)c3cc(F)cnc3n(-c3cccc(-c4ccc(O)cc4CN4CCOCC4)c3)c2=O)CC1 [Example 370, 6-fluoro-1-[4′-hydroxy-2′-(morpholin-4-ylmethyl)biphenyl-3-yl]-3-(cis-4-{[(2-methylimidazo[1,2-a]pyridin-3-yl)methyl]amino}cyclohexyl)pyrido[2,3-d]pyrimidine-2,4(1H,3H)-dione]
0.1 | CCCCc1ccc(C(=O)N[C@H]2CC[C@@H](n3c(=O)c4cc(F)cnc4n(-c4cccc(-c5ccc(CN6C[C@@H](C)N[C@@H](C)C6)cc5)c4)c3=O)CC2)nc1 [Example 302, 5-butyl-N-{cis-4-[1-(4′-{[(3R,5S)-3,5-dimethylpiperazin-1-yl]methyl}biphenyl-3-yl)-6-fluoro-2,4-dioxo-1,4-dihydropyrido[2,3-d]pyrimidin-3(2H)-yl]cyclohexyl} pyridine-2-carboxamide]
0.794 | O=c1c2cc(F)cnc2n(-c2cccc(-c3ccc(O)cc3CN3CCOCC3)c2)c(=O)n1[C@H]1CC[C@@H](NCc2ccccc2F)CC1 [Example 285, 6-fluoro-3-{cis-4-[(2-fluorobenzyl)amino]cyclohexyl}-1-[4′-hydroxy-2′-(morpholin-4-ylmethyl)biphenyl-3-yl]pyrido[2,3-d]pyrimidine-2,4(1H,3H)-dione]
0.631 | C[C@H](CO)N(C)Cc1cc(O)ccc1-c1cccc(-n2c(=O)n([C@H]3CC[C@@H](NCc4cn5cc(F)ccc5n4)CC3)c(=O)c3cc(F)cnc32)c1 [Example 319, 6-fluoro-3-(cis-4-{[(6-fluoroimidazo[1,2-a]pyridin-2-yl)methyl]amino}cyclohexyl)-1-(4′-hydroxy-2′-{[[(1R)-2-hydroxy-1-methylethyl](methyl)amino]methyl}biphenyl-3-yl)pyrido[2,3-d]pyrimidine-2,4(1H,3H)-dione]
0.0251 | Cc1cc(C(=O)N[C@H]2CC[C@@H](n3c(=O)c4cc(F)cnc4n(-c4cccc(-c5ccc(O)cc5CN(C)C)c4)c3=O)CC2)nn1C [Example 348, N-{cis-4-[1-{2′-[(dimethylamino)methyl]-4′-hydroxybiphenyl-3-yl}-6-fluoro-2,4-dioxo-1,4-dihydropyrido[2,3-d]pyrimidin-3(2H)-yl]cyclohexyl}-1,5-dimethyl-1H-pyrazole-3-carboxamide]
